Assay results: patent US12662511B2, “Molecular transport system to the central nervous system” (SRI International, priority 2020, dated 2026)
No end group written: not given here.

Legend:
[1] = In vivo CSF accumulation and brain distribution of dye-labeled MTS after IV tail vein injection; design: species or system rat; conditions: for amount present relative to MTS_CPEC4_V2 / distribution in brain (fluorescence imaging of coronal slices): rat, IV tail vein; for amount present relative to MTS_CPEC4_V2: CSF, dimeric peptide, fold higher than MTS_CPEC4_V2; for distribution in brain (fluorescence imaging of coronal slices): dye-labeled MTS
Protocol: (§1) The MTS is labeled with a dye that allows us to visualize its location. It is injected IV into the tail vein of a rat. After the indicated time, the CSF is isolated from the cisterna magna. The brain is harvested. After a fixation period, the brain is sliced in 1 mm coronal segments (front to back). The individual slices of the brain are imaged using fluorescence to locate the regions of peptide accumulation.
as §1, with “Dimeric MTS_Z310-5 is present in an amount 3× higher than MTS_CPEC4_V2 (FIG. 26). […] The MTS” for “The MTS”, “of peptide accumulation” for “of peptide accumulation.”
as §1, with “Dimeric MTS_Z310-2 is present in an amount 9× higher than MTS_CPEC4_V2 (FIG. 27). […] The MTS” for “The MTS”, “of peptide accumulation” for “of peptide accumulation.”

[2] = tested on: rat choroid plexus epithelial cells (Z310); test: Transwell transport across rat choroid plexus epithelial cells (Z310); format: cell-based
Protocol: FIG. 15 is an in vitro transwell assay used to determine the ability of the MTS_CPEC4 phage clone or peptide to cross a choroid plexus barrier model derived from a Rat (Z310) cells). The amount of input placed on one side of the barrier (the “blood” side) and the amount that passes through the cells to the other side (the CSF side) is measured. The top table represents the data for the phage clone. The empty phage has no MTS peptide attached. The amount of phage in each side of the transwell is determined by bacterial titering. The bottom table represents the data for the synthetic peptide. Here the peptide is labeled with a fluorophore so the peptide on either side of the barrier can be measured. Dextran-dye (such as Alexa Fluor 488) is used as a control molecule. This molecule should not pass through the transwell and assures that the choroid plexus model is valid.
Other lead MTS peptides were examined using a transwell transport set up with rat choroid plexus cells (FIG. 24). Eight phage clones were enriched in the CSF. Individual phage clones were then tested for transcytosis in vitro on Z310 choroid plexus cells and CSF accumulation in rats. MTS_Z310-2 (SEQ ID NO:4) and MTS_Z310-5 (SEQ ID NO:7) phage clones were carried forward for further evaluation. […] The 20% transport is better than that seen with CPEC4. […]

choroid plexus cells = test: Transport across monolayer of choroid plexus cells with dye or streptavidin cargo (FIG. 21); format: cell-based; conditions: chemical (AF647 dye) and protein (50 kDa Streptavidin) cargoes
Excerpt: The integrity of the monolayer with tight junctions is observed by the lack of diffusion or transport of low a molecular weight dye (750) maleimide), a 10 kDa dextran polymer, or larger protein (50 kDa). In the SA conjugate, the MTS has a biotin in the core structure. The biotin is then conjugated to a streptavidin protein labeled with a fluorophore.

[3] = Serum stability of MTS peptide; format: in vitro ADME; conditions: read-out: peptide remains intact
Protocol: The stability of the different MTS sequences is important. […] 80% of the peptide remains intact at 24 hours. Modifications were mapped by MS.

[4] = tested on: human primary choroid plexus epithelial cells; test: Transwell transport of fluorescent protein cargo across human choroid plexus in vitro model; format: cell-based
Excerpt: A rat model was developed as well. Selection to identify a phage clone from the library that crosses the choroid plexus epithelial barrier has also been informed. […] The phage clone was transported into the CSF selectively and data supported similar transport for the MTS peptide.
FIG. 13 represents a dimer of the CPEC4 peptide. The CPEC4 peptide was synthesized as a dimer and having a biotin handle that allows for attachment of fluorescently labeled proteins.
6-9% of the protein is transported across the cell layer. Tight junctions remain intact as witnessed by lack of dextran transport and maintenance of transepithelial resistance at the end of the experiment.

[5] = tested on: choroid plexus epithelial cell layer; test: Phage clone transport through human choroid plexus cells in vitro (FIG. 12); format: cell-based; conditions: phage-displayed peptide
Protocol: CPEC4_Phage clone sequence […] (SEQ ID NO:2) was the lead peptide sequence in these studies. CPEC4 phage clone is enriched as multiple rounds of panning were performed. CPEC4 phage clone is selected from the transwell indicating transport and release.
The phage clone remains viable during the cellular transport.

Question: For “Dimeric MTS_Z310-5: comprises two MTS peptides each having the sequence SKETYSMNAQRQHERS (SEQ ID NO:7) (also: dimer, linkage not given here)”, which “amount present relative to MTS_CPEC4_V2” value [1] is on record?
Answer: The value was 3 ×.

Question: And the “distribution in brain (fluorescence imaging of coronal slices)” value (shortened to “distribution in brain”) [1]?
Answer: Its value is “distributed throughout the ventricular system of the brain”.

Question: For “MTS_CPEC4_V2 (SEQ ID NO: 1) dimers: comprises two MTS peptides each having the sequence DAYKLQTSLDWQMWNP (SEQ ID NO: 1) (also: dimer, linkage not given here)”, which “distribution in brain” value [1] is on record?
Answer: The value was “distributed throughout the ventricular system of the brain”.

Question: With “FPSWTSKNQQWTNQRQ (molecular transport peptide) [MTS_Z310-2]” as the compound, how does the “transport of protein cargo” value [2] read?
Answer: The value was 20%.

Question: For “Dimeric MTS_Z310-2: comprises two MTS peptides each having the sequence FPSWTSKNQQWTNQRQ (SEQ ID NO:4) (also: dimer, linkage not given here)”, which “amount present relative to MTS_CPEC4_V2” value [1] is on record?
Answer: The value was 9 ×.

Question: And the “distribution in brain” value [1]?
Answer: Its value is “distributed throughout the ventricular system”.

Question: For `CSCC[C@H](NC(=O)[C@H](CCC(N)=O)NC(=O)[C@H](Cc1c[nH]c2ccccc12)NC(=O)[C@H](CC(=O)O)NC(=O)[C@H](CC(C)C)NC(=O)[C@H](CO)NC(=O)[C@@H](NC(=O)[C@H](CCC(N)=O)NC(=O)[C@H](CC(C)C)NC(=O)[C@H](CCCCN)NC(=O)[C@H](Cc1ccc(O)cc1)NC(=O)[C@H](C)NC(=O)[C@H](CC(=O)O)NC(C)=O)[C@@H](C)O)C(=O)N[C@@H](Cc1c[nH]c2ccccc12)C(=O)N[C@@H](CC(N)=O)C(=O)N1CCC[C@H]1C(=O)NCCOCCOCCOCCOCCOCCOCCOCCOCCOCCOCCOCCC(N)=O` [MTS-CPEC4_V2], which “transport across monolayer of choroid plexus cells” value (choroid plexus cells) is on record?
Answer: The value was “efficiently transported”.

Question: And the “accumulation in the CSF” value ([1]; rats, tail vein injection)?
Answer: Its value is “accumulating in the CSF”.

Question: And the remaining at 24 h [3]?
Answer: The remaining at 24 h was 80%.

Question: With “DGYKLQTSLDWQMWNP (molecular transport peptide) [MTS_CPEC4_V1]” as the compound, how does the “protein transported across the cell layer” value [4] read?
Answer: Its value is 6-9%.

Question: And the “transport across monolayer of choroid plexus cells” value (choroid plexus cells)?
Answer: Its value is “efficiently transported”.

Question: What about the “transport of phage particle across choroid plexus epithelial cell layer” value [5] of the same compound?
Answer: Its value is “mediates transport of a large phage particle across choroid plexus epithelial cell layer”.

Question: Which “transport of protein cargo” value [2] does the source give for “SKETYSMNAQRQHERS (molecular transport peptide) [MTS_Z310-5]” here?
Answer: Its value is 20%.
